# From US20060008891A1, “Cathepsin G-related peptides as modulators of formylpeptide receptors (FPR)” (The Government of USA as repersented by the Secretary, …, priority 2004, published 2006)
# “Also recorded” adds a separate entry of the source.
# T1: FPR (Homo sapiens, UniProt P21462)
# T1 construct: expressed in transfected cells; host or cells: Rat basophilic leukemia (RBL) cells, stably transfected (ETFR cells); gift of H. Ali and R. Snyderman, Duke University
# T1 sequence (P21462 1-350): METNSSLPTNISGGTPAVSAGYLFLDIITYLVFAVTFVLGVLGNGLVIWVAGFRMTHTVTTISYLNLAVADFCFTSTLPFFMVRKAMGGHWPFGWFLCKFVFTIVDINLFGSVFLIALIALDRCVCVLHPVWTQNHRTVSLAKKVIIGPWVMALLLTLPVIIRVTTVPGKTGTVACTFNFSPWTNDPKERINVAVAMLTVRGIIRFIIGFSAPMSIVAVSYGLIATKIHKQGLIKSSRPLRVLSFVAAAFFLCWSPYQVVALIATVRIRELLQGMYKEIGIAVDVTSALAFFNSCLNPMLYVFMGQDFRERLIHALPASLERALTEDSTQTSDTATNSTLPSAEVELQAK
# B1: α1-ACT: α1-antichymotrypsin, CaG inhibitor (protein, UniProt P01011 24-423, looked up)
# Alpha-1-antichymotrypsin: HPNSPLDEENLTQENQDRGTHVDLGLASANVDFAFSLYKQLVLKAPDKNVIFSPLSISTALAFLSLGAHNTTLTEILKGLKFNLTETSEAEIHQSFQHLLRTLNQSSDELQLSMGNAMFVKEQLSLLDRFTEDAKRLYGSEAFATDFQDSAAAKKLINDYVKNGTRGKITDLIKDLDSQTMMVLVNYIFFKAKWEMPFDPQDTHQSRFYLSKKKWVMVPMMSLHHLTIPYFRDEELSCTVVELKYTGNASALFILPDQDKMEEVEAMLLPETLKRWRDSLEFREIGELYLPKFSISRDYNLNDILLQLGIEEAFTSKADLSGITGARNLAVSQVVHKAVLDVFEEGTEASAATAVKITLLSALVETRTIVRFNRPFLMIIVPTDTQNIFFMSKVTNPKQA
# Assays:
# [1] = test system: monocytes; experiment: Chemotaxis assay, monocytes; assay type: cell-based, human
# Method: Human PBMC were isolated from leukopacks obtained through the courtesy of Transfusion Medicine Department, National Institutes of Health Clinical Center (Bethesda, Md.) by Ficoll-Hypaque density gradient centrifugation. Monocytes were purified from human PBMC by Percoll gradient to yield>90% pure preparations. […] H. Ali and R. Snyderman, Duke University (Durham, N.C.) and maintained in the presence of 0.8 mg/ml geneticin (G418, Life Technologies, Rockville, Md.) in DMEM supplemented with 10% FCS. B. Chemotaxis assay Migration of phagocytes and ETFR cells was assessed using a 48-well microchemotaxis chamber (Neuroprobe, Cabin John, Md.) as previously described (Hu et al. (2001) J Leukoc Biol 70 15512). Briefly, different concentrations of stimulants were placed in the wells of the lower compartment of the chamber, and 50 μl cells (1.5×10^6 cells/ml for monocyte and neutrophil, 1×10^6 ETFR cells/ml) were added to the wells of the upper compartment. The lower and upper compartments were separated by either a 5-μm (for monocyte) or a 10-μm pore size, collagen-coated (for ETFR cells) polycarbonate filter (Osmonics, Livermore, Calif.). After incubation at 37° C. in humidified air with 5% CO2 (60 min for neutrophils, 90 min for monocytes, 4.5 h for ETFR cells), the filter was removed and stained, and the cells migrating across the filter were counted with light microscopy. The results are presented as the mean number of cells (±SD) in three high power fields (HPFs). […] After thorough washing with cold medium (RPMI 1640, 1% BSA), the cells were resuspended and assayed. To measure the effect of various signaling inhibitors, unless otherwise indicated, the cells were pre-incubated at 37° C. for 60 min with the inhibitors, and were then added to the upper wells of the chemotaxis chamber.
# [2] = molecular target: T1, FPR; experiment: Chemotaxis assay, RBL cells transfected with FPR (ETFR cells); assay type: cell-based; settings: for inhibition of ETFR cell chemotaxis to CaG: CaG 10 μg/ml; for inhibition of ETFR cell chemotaxis to fMLF: fMLF 100 nM
# Method: (§1) Human PBMC were isolated from leukopacks obtained through the courtesy of Transfusion Medicine Department, National Institutes of Health Clinical Center (Bethesda, Md.) by Ficoll-Hypaque density gradient centrifugation. Monocytes were purified from human PBMC by Percoll gradient to yield>90% pure preparations. […] H. Ali and R. Snyderman, Duke University (Durham, N.C.) and maintained in the presence of 0.8 mg/ml geneticin (G418, Life Technologies, Rockville, Md.) in DMEM supplemented with 10% FCS. B. Chemotaxis assay Migration of phagocytes and ETFR cells was assessed using a 48-well microchemotaxis chamber (Neuroprobe, Cabin John, Md.) as previously described (Hu et al. (2001) J Leukoc Biol 70 15512). Briefly, different concentrations of stimulants were placed in the wells of the lower compartment of the chamber, and 50 μl cells (1.5×10^6 cells/ml for monocyte and neutrophil, 1×10^6 ETFR cells/ml) were added to the wells of the upper compartment. The lower and upper compartments were separated by either a 5-μm (for monocyte) or a 10-μm pore size, collagen-coated (for ETFR cells) polycarbonate filter (Osmonics, Livermore, Calif.). After incubation at 37° C. in humidified air with 5% CO2 (60 min for neutrophils, 90 min for monocytes, 4.5 h for ETFR cells), the filter was removed and stained, and the cells migrating across the filter were counted with light microscopy. The results are presented as the mean number of cells (±SD) in three high power fields (HPFs). For analysis of cross-desensitization, cells were pretreated with indicated reagents for 1 h at 37° C. After thorough washing with cold medium (RPMI 1640, 1% BSA), the cells were resuspended and assayed. To measure the effect of various signaling inhibitors, unless otherwise indicated, the cells were pre-incubated at 37° C. for 60 min with the inhibitors, and were then added to the upper wells of the chemotaxis chamber.
# [3] = test system: neutrophils; experiment: Chemotaxis assay, neutrophils; assay type: cell-based, human; settings: human neutrophils
# Method: as §1
# [4] = test system: PKCδ; experiment: PKCδ translocation in ETFR cells; assay type: cell-based, rat; settings: 100 nM fMLF, 10 μg/ml CaG or PMA 500 nM, 37° C. 10 min
# Method: ETFR cells were seeded on coverslips and cultured overnight in DMEM containing 1% FCS at 37° C. After further culture in FCS-free DMEM for 3 h, cells were treated with stimulants for indicated time periods at 37° C. and were then fixed in 4% paraformaldehyde for 5 min at room temperature. […] The rabbit anti-PKCα/β, δ, and ξ, antibodies (1:1000 in DPBS) were applied separately for 1 h at room temperature. After three rinses with DPBS, the cells were stained with FITC-labeled goat anti-rabbit secondary antibody (PharMingen, 1:1000 in DPBS) for 1 h at room temperature. The coverslips were mounted with an anti-fade, water-based mounting medium with Propidium Iodide (PI) (Vector Lab, Burlingamem, Calif.) and analyzed under a laser scanning confocal fluorescence microscope (Zeiss LSM510 NLO Meta, Jena, Germany).
# [5] = test system: PKCα/β; experiment: PKCα/β translocation in ETFR cells; assay type: cell-based, rat; settings: 100 nM fMLF, 10 μg/ml CaG or PMA 500 nM, 37° C. 10 min
# Method: (§2) ETFR cells were seeded on coverslips and cultured overnight in DMEM containing 1% FCS at 37° C. After further culture in FCS-free DMEM for 3 h, cells were treated with stimulants for indicated time periods at 37° C. and were then fixed in 4% paraformaldehyde for 5 min at room temperature. The cells were permeabilized with 0.2% Tween 20 for 30 min at 4° C. and the reaction was blocked with 5% goat normal serum for 15 min at room temperature. The rabbit anti-PKCα/β, δ, and ξ, antibodies (1:1000 in DPBS) were applied separately for 1 h at room temperature. After three rinses with DPBS, the cells were stained with FITC-labeled goat anti-rabbit secondary antibody (PharMingen, 1:1000 in DPBS) for 1 h at room temperature. The coverslips were mounted with an anti-fade, water-based mounting medium with Propidium Iodide (PI) (Vector Lab, Burlingamem, Calif.) and analyzed under a laser scanning confocal fluorescence microscope (Zeiss LSM510 NLO Meta, Jena, Germany). Excitation wavelengths 488 (for FITC) and 568 (for PI) nm were used to generate fluorescence emission in green and red, respectively.
# [6] = test system: PKCζ; experiment: PKCζ translocation in ETFR cells (confocal microscopy); assay type: cell-based, rat; settings: 100 nM fMLF, 10 μg/ml CaG or PMA 500 nM, 37° C. 10 min
# Method: as §2
# [7] = test system: PKC isozymes; experiment: PKC translocation in parental RBL cells; assay type: cell-based, rat; settings: 100 nM fMLF, 10 μg/ml CaG or PMA 500 nM, 37° C. 10 min
# [8] = molecular target: T1, FPR; experiment: Chemotactic activity for ETFR cells after α1-ACT treatment of stimulants and supernatants; assay type: cell-based; settings: α1-ACT 0.75 μM
# Method: ETFR and RBL cells (10×10^6/ml) were incubated with medium or 10 μg/ml CaG at 37° C. for 1 h. Supernatants were collected and measured for chemotactic activity for un-treated ETFR cells.
# as §1
# Cleavage by proteases is required for regulation of the function of a number of molecules in triggering proper physiological processes. […] Therefore, we examined whether interaction of FPR with CaG might cleave FPR to generate a new defacto agonist for this receptor, such as in the model of thrombin activation of its receptors. ETFR cells were cultured with CaG under the conditions that are sufficient for cleavage of other proteins by CaG (Kinlough-Rathbone et al. (1999) Thromb Res 95, 31524). The supernatant was collected and examined for its chemotactic activity for FPR. […]
molecule,measurement,setting,value
"C/C=C/C[C@@H](C)[C@@H](O)[C@H]1C(=O)N[C@@H](CC)C(=O)N(C)CC(=O)N(C)[C@@H](CC(C)C)C(=O)N[C@@H](C(C)C)C(=O)N(C)[C@@H](CC(C)C)C(=O)N[C@@H](C)C(=O)N[C@H](C)C(=O)N(C)[C@@H](CC(C)C)C(=O)N(C)[C@@H](CC(C)C)C(=O)N(C)[C@H](C(C)C)C(=O)N1C [CsH, Cyclosporin H, reference compound]",inhibition of monocyte chemotaxis to CaG,[1]; CaG 10 μg/ml,abolished monocyte chemotaxis to CaG and fMLF
same,inhibition of monocyte chemotaxis to fMLF,[1]; fMLF 10 nM,abolished monocyte chemotaxis to CaG and fMLF
"CN(C)CCCn1cc(C2=C(c3c[nH]c4ccccc34)C(=O)NC2=O)c2ccccc21 [Gö 6850, bisindolylmaleimide I]",inhibition of ETFR cell chemotaxis to CaG,[2],limited effect on fMLF- and CaG-induced ETFR cell migration
same,inhibition of ETFR cell chemotaxis to fMLF,[2],limited effect on fMLF- and CaG-induced ETFR cell migration
same,inhibition of neutrophil chemotaxis to CaG,[3],did not have any effect
same,inhibition of neutrophil chemotaxis to IL-8,[3],did not have any effect
same,inhibition of neutrophil chemotaxis to fMLF,[3],did not have any effect
CCCCCCCCCCCCCC(=O)O[C@@H]1[C@@H](C)[C@@]2(O)[C@@H](C=C(CO)C[C@]3(O)C(=O)C(C)=C[C@@H]23)[C@@H]2C(C)(C)[C@]12OC(C)=O [PMA],translocation of PKCδ,[4],"induced translocation of PKCζ, PKCα/β, and PKCδ in ETFR and RBL cells"
same,translocation of PKCα/β,[5],"activated these PKC isozymes in both ETFR and RBL cells; also recorded: induced translocation of PKCζ, PKCα/β, and PKCδ in ETFR and RBL cells"
same,translocation of PKCζ,[6],"activated these PKC isozymes in both ETFR and RBL cells; also recorded: induced translocation of PKCζ, PKCα/β, and PKCδ in ETFR and RBL cells"
same,PKC translocation in parental RBL cells,[7],"activated these PKC isozymes in both ETFR and RBL cells; also recorded: induced translocation of PKCζ, PKCα/β, and PKCδ in ETFR and RBL cells"
"CN[C@@H]1C[C@H]2O[C@@](C)([C@@H]1OC)n1c3ccccc3c3c4c(c5c6ccccc6n2c5c31)C(=O)NC4 [Staurosporine, reference compound]",inhibition of ETFR cell chemotaxis to CaG,[2],abrogated chemotaxis of ETFR cells induced by either CaG or fMLF
same,inhibition of ETFR cell chemotaxis to fMLF,[2],abrogated chemotaxis of ETFR cells induced by either CaG or fMLF
B1,effect on chemotactic activity of supernatant from CaG-digested ETFR cells,[8]; 15 min room temperature,completely abolished
same,effect on chemotactic activity of supernatants from CaG-treated RBL cells,[8]; 15 min room temperature,inhibited by α1-ACT
same,effect on chemotactic activity of CaG,[8]; CaG 10 μg/ml,significantly reduced chemotactic activity
same,effect on chemotactic activity of fMLF,[8]; fMLF 100 nM,did not affect the chemotactic activity of fMLF for FPR
